Results: US6525001B1, “Substituted pyrimidine and pyridine herbicides” (Mid-American Commercialization Corporation, priority 1997, dated 2003)

How the values were obtained:
Experiment in all cases: Test B pre-/postemergence
Assay type in all cases: in vivo
Set-up in all cases: key: 0 is no effect; 10 is complete control
[1] = tested on: bedstraw (Galium aparine)
In short: (§1)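 Scored visually 0 (none) to 10 (complete control) against untreated plants after twelve to sixteen greenhouse days. Test chemicals, formulated in surfactant-containing non-phytotoxic solvent, applied to soil after planting and, separately, onto 1- to 4-leaf (2–18 cm) plants.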

[2] = tested on: blackgrass (Alopecurus myosuroides)
In short: as §1

[3] = tested on: broadleaf signalgrass (Brachiaria decumbens)
In short: as §1

[4] = tested on: cocklebur (Xanthium strumarium)
In short: as §1

corn (Zea mays) = tested on: corn (Zea mays)
In short: as §1

[5] = tested on: crabgrass (Digitaria sanguinalis)
In short: as §1

[6] = tested on: giant foxtail (Setaria faberii)
In short: as §1

[7] = tested on: momingglory (Ipomoea hederacea)
In short: as §1

[8] = tested on: pigweed (Amaranthus retroflexus)
In short: as §1

rape (Brassica napus) = tested on: rape (Brassica napus)
In short: as §1

soybean (Glycine max) = tested on: soybean (Glycine max)
In short: as §1

[9] = tested on: sugar beet (Beta vulgaris)
In short: as §1

[10] = tested on: velvetleaf (Abutilon theophrasti)
In short: as §1

[11] = tested on: wheat (Triticum aestivum)
In short: as §1

[12] = Preemergence, Rate 62 g/ha, scale of 0 to 10

SMILES: Cc1cnc(-n2cnc(C(F)(F)F)c2)nc1C(=O)c1cccc(C(F)(F)F)c1 [Compound 61]
- Plant response rating, Bedstraw [1, 12]: 3
- Bedstraw plant response rating ([1]; Rate 62 g/ha, Postemergence): 8
- Bedstraw plant response rating ([1]; Rate 125 g/ha, Postemergence): 8
- Plant response rating, Bedstraw ([1]; Rate 125 g/ha, Preemergence): 4
- Plant response rating, Bedstraw ([1]; Rate 250 g/ha, Postemergence): 9
- Plant response rating, Bedstraw ([1]; Rate 250 g/ha, Preemergence): 6
- Plant response rating, Bedstraw ([1]; Rate 500 g/ha, Postemergence): 9
- Plant response rating, Bedstraw ([1]; Rate 500 g/ha, Preemergence): 9
- Plant response rating, Blackgrass [2, 12]: 1
- Blackgrass plant response rating ([2]; Rate 62 g/ha, Postemergence): 3
- Blackgrass plant response rating ([2]; Rate 125 g/ha, Postemergence): 4
- Plant response rating, Blackgrass ([2]; Rate 125 g/ha, Preemergence): 3
- Plant response rating, Blackgrass ([2]; Rate 250 g/ha, Postemergence): 6
- Plant response rating, Blackgrass ([2]; Rate 250 g/ha, Preemergence): 5
- Plant response rating, Blackgrass ([2]; Rate 500 g/ha, Postemergence): 8
- Plant response rating, Blackgrass ([2]; Rate 500 g/ha, Preemergence): 8
- B. signalgrass plant response rating ([3]; Rate 62 g/ha, Postemergence): 3
- B. signalgrass plant response rating ([3]; Rate 62 g/ha, Preemergence): 5
- B. signalgrass plant response rating ([3]; Rate 125 g/ha, Postemergence): 4
- Plant response rating, B. signalgrass ([3]; Rate 125 g/ha, Preemergence): 7
- Plant response rating, B. signalgrass ([3]; Rate 250 g/ha, Postemergence): 4
- Plant response rating, B. signalgrass ([3]; Rate 250 g/ha, Preemergence): 8
- Plant response rating, B. signalgrass ([3]; Rate 500 g/ha, Postemergence): 5
- Plant response rating, B. signalgrass ([3]; Rate 500 g/ha, Preemergence): 9
- Plant response rating, Cocklebur [4, 12]: 0
- Cocklebur plant response rating ([4]; Rate 62 g/ha, Postemergence): 3
- Cocklebur plant response rating ([4]; Rate 125 g/ha, Postemergence): 7
- Plant response rating, Cocklebur ([4]; Rate 125 g/ha, Preemergence): 0
- Plant response rating, Cocklebur ([4]; Rate 250 g/ha, Postemergence): 8
- Plant response rating, Cocklebur ([4]; Rate 250 g/ha, Preemergence): 1
- Plant response rating, Cocklebur ([4]; Rate 500 g/ha, Postemergence): 8
- Plant response rating, Cocklebur ([4]; Rate 500 g/ha, Preemergence): 10
- Plant response rating, Corn (corn (Zea mays); [12]): 1
- Corn plant response rating (corn (Zea mays); Rate 62 g/ha, Postemergence): 2
- Corn plant response rating (corn (Zea mays); Rate 125 g/ha, Postemergence): 3
- Plant response rating, Corn (corn (Zea mays); Rate 125 g/ha, Preemergence): 1
- Plant response rating, Corn (corn (Zea mays); Rate 250 g/ha, Postemergence): 3
- Plant response rating, Corn (corn (Zea mays); Rate 250 g/ha, Preemergence): 1
- Plant response rating, Corn (corn (Zea mays); Rate 500 g/ha, Postemergence): 4
- Plant response rating, Corn (corn (Zea mays); Rate 500 g/ha, Preemergence): 2
- Plant response rating, Crabgrass [5, 12]: 3
- Crabgrass plant response rating ([5]; Rate 62 g/ha, Postemergence): 3
- Crabgrass plant response rating ([5]; Rate 125 g/ha, Postemergence): 3
- Plant response rating, Crabgrass ([5]; Rate 125 g/ha, Preemergence): 5
- Plant response rating, Crabgrass ([5]; Rate 250 g/ha, Postemergence): 7
- Plant response rating, Crabgrass ([5]; Rate 250 g/ha, Preemergence): 8
- Plant response rating, Crabgrass ([5]; Rate 500 g/ha, Postemergence): 9
- Plant response rating, Crabgrass ([5]; Rate 500 g/ha, Preemergence): 10
- Plant response rating, Giant foxtail [6, 12]: 8
- Giant foxtail plant response rating ([6]; Rate 62 g/ha, Postemergence): 2
- Giant foxtail plant response rating ([6]; Rate 125 g/ha, Postemergence): 4
- Plant response rating, Giant foxtail ([6]; Rate 125 g/ha, Preemergence): 9
- Plant response rating, Giant foxtail ([6]; Rate 250 g/ha, Postemergence): 5
- Plant response rating, Giant foxtail ([6]; Rate 250 g/ha, Preemergence): 10
- Plant response rating, Giant foxtail ([6]; Rate 500 g/ha, Postemergence): 9
- Plant response rating, Giant foxtail ([6]; Rate 500 g/ha, Preemergence): 10
- Morningglory plant response rating ([7]; Rate 62 g/ha, Postemergence): 5
- Morningglory plant response rating ([7]; Rate 125 g/ha, Postemergence): 9
- Plant response rating, Morningglory ([7]; Rate 125 g/ha, Preemergence): 3
- Plant response rating, Morningglory ([7]; Rate 250 g/ha, Preemergence): 10
- Plant response rating, Morningglory ([7]; Rate 500 g/ha, Postemergence): 9
- Plant response rating, Morningglory ([7]; Rate 500 g/ha, Preemergence): 10
- Plant response rating, Redroot pigweed [8, 12]: 8
- Redroot pigweed plant response rating ([8]; Rate 62 g/ha, Postemergence): 8
- Redroot pigweed plant response rating ([8]; Rate 125 g/ha, Postemergence): 9
- Plant response rating, Redroot pigweed ([8]; Rate 125 g/ha, Preemergence): 9
- Plant response rating, Redroot pigweed ([8]; Rate 250 g/ha, Postemergence): 9
- Plant response rating, Redroot pigweed ([8]; Rate 250 g/ha, Preemergence): 9
- Plant response rating, Redroot pigweed ([8]; Rate 500 g/ha, Postemergence): 9
- Plant response rating, Redroot pigweed ([8]; Rate 500 g/ha, Preemergence): 10
- Plant response rating, Rape (rape (Brassica napus); [12]): 4
- Rape plant response rating (rape (Brassica napus); Rate 62 g/ha, Postemergence): 6
- Rape plant response rating (rape (Brassica napus); Rate 125 g/ha, Postemergence): 7
- Plant response rating, Rape (rape (Brassica napus); Rate 125 g/ha, Preemergence): 8
- Plant response rating, Rape (rape (Brassica napus); Rate 250 g/ha, Postemergence): 8
- Plant response rating, Rape (rape (Brassica napus); Rate 250 g/ha, Preemergence): 9
- Plant response rating, Rape (rape (Brassica napus); Rate 500 g/ha, Postemergence): 9
- Plant response rating, Rape (rape (Brassica napus); Rate 500 g/ha, Preemergence): 9
- Plant response rating, Soybean (soybean (Glycine max); [12]): 0
- Soybean plant response rating (soybean (Glycine max); Rate 62 g/ha, Postemergence): 4
- Soybean plant response rating (soybean (Glycine max); Rate 125 g/ha, Postemergence): 5
- Plant response rating, Soybean (soybean (Glycine max); Rate 125 g/ha, Preemergence): 1
- Plant response rating, Soybean (soybean (Glycine max); Rate 250 g/ha, Postemergence): 5
- Plant response rating, Soybean (soybean (Glycine max); Rate 250 g/ha, Preemergence): 1
- Plant response rating, Soybean (soybean (Glycine max); Rate 500 g/ha, Postemergence): 6
- Plant response rating, Soybean (soybean (Glycine max); Rate 500 g/ha, Preemergence): 2
- Plant response rating, Sugarbeets [9, 12]: 10
- Sugarbeets plant response rating ([9]; Rate 62 g/ha, Postemergence): 9
- Sugarbeets plant response rating ([9]; Rate 125 g/ha, Postemergence): 10
- Plant response rating, Sugarbeets ([9]; Rate 125 g/ha, Preemergence): 10
- Plant response rating, Sugarbeets ([9]; Rate 250 g/ha, Postemergence): 10
- Plant response rating, Sugarbeets ([9]; Rate 250 g/ha, Preemergence): 10
- Plant response rating, Sugarbeets ([9]; Rate 500 g/ha, Postemergence): 10
- Plant response rating, Sugarbeets ([9]; Rate 500 g/ha, Preemergence): 10
- Plant response rating, Velvetleaf [10, 12]: 9
- Velvetleaf plant response rating ([10]; Rate 62 g/ha, Postemergence): 7
- Velvetleaf plant response rating ([10]; Rate 125 g/ha, Postemergence): 7
- Plant response rating, Velvetleaf ([10]; Rate 125 g/ha, Preemergence): 10
- Plant response rating, Velvetleaf ([10]; Rate 250 g/ha, Postemergence): 8
- Plant response rating, Velvetleaf ([10]; Rate 250 g/ha, Preemergence): 10
- Plant response rating, Velvetleaf ([10]; Rate 500 g/ha, Postemergence): 8
- Plant response rating, Velvetleaf ([10]; Rate 500 g/ha, Preemergence): 10
- Plant response rating, Wheat [11, 12]: 1
- Wheat plant response rating ([11]; Rate 62 g/ha, Postemergence): 3
- Wheat plant response rating ([11]; Rate 125 g/ha, Postemergence): 3
- Plant response rating, Wheat ([11]; Rate 125 g/ha, Preemergence): 3
- Plant response rating, Wheat ([11]; Rate 250 g/ha, Postemergence): 3
- Plant response rating, Wheat ([11]; Rate 250 g/ha, Preemergence): 4
- Plant response rating, Wheat ([11]; Rate 500 g/ha, Postemergence): 4
- Plant response rating, Wheat ([11]; Rate 500 g/ha, Preemergence): 4
